{"source": "patent US9096832B2", "about": "“Differentiation of human embryonic stem cells” (LifeScan, Inc., priority 2007, dated 2015)", "tested_on": "H9P46-P48 embryonic stem cells", "test": "Definitive endoderm on […]: effect of GSK-3B inhibitor IX (FACS CXCR4, PCR)", "type": "cell-based, human", "conditions": "20 ng/ml Wnt-3a or 100-1000 nM GSK-3B inhibitor, day 5", "experimental": "In order to confirm that the effect of Wnt-3a was through the Wnt pathway, a GSK-3 inhibitor was used to activate the downstream targets of Wnt, such as beta catenin. […] FIG. 29, panel a depicts the expression of CXCR4 by FACS at day 5 in the absence of Wnt-3a or GSK-3B inhibitor, b) +20 ng/ml Wnt-3a, c) +1000 nM GSK-3B inhibitor IX, d) +500 nM GSK-3B inhibitor IX, e) +100 nM GSK-3B inhibitor IX, f) +10 nM GSK-3B inhibitor IX, g) +100 nM GSK-3B inhibitor IX for days 1-2, and h) +10 nM GSK-3B inhibitor IX for days 1-2."}
{"substance": "Wnt-3a", "values": [{"measurement": "number of CXCR4 positive cells", "value": "significantly increased"}]}
